The values that follow come from patent publication US20120237651A1 (priority 2002, published 2012).

Several values for one entry are separate records, joined by “and”; a condition that tells them apart may be missing. Equal values may be shown once. Where a name gives a salt, the structure may show the parent alone. Read-outs that look alike come from different tables or passages of the source.

For experiment [1], the system named is DON contamination. In words: Field test, mixed use (1): DON contamination concentration by HPLC-UV (Example 3). Format: in vivo, Wheat (cultivar: Haruyutaka). The procedure:
Wheat (cultivar: Haruyutaka) was seeded on Apr. […] A suspension containing potassium phosphite and various fungicidal agents was prepared in a liquid mixture made up of a spreading agent (Gramine S: supplied from Hokkai Sankyo Co., Ltd.) and water. Using potassium phosphite as the compound A, 0.070% P2O5, and the 0.006 to 0.025% fungicidal agent for agri-horticulture for the wheat as the compound B, water solution containing them was prepared, and 100 L thereof per 10 a was sprayed on leaves in the following growth stages. That is, the first spray (June 24, heading date), the second (June 30, flowering stage), the third (July 9) were performed. The harvest was performed on August 12 (50 days after the heading date) by harvesting the wheat in 3.4 m^2 in each section. […] The DON contamination concentration was analyzed using HPLC-UV method in officially fixed methods shown by the Minister of Health, Labor and Welfare. Quantitative analysis was performed by repeating three times, and the quantitative value was an average value thereof.
Preparation of analysis sample solutions and the analysis procedure are briefly described.
To 50 g of the whole grain powder, 85% acetonitrile was added, vigorously agitated for 30 min, and subsequently sonicated for 10 min.
After eliminating impurities with filter paper, a filtrate was purified using a pretreatment column MultiSep #227 to make a solution for analysis.
The test solution for analysis was injected into high performance liquid chromatography, and DON was detected by ultraviolet rays.

Experiment [2] deals with Fusarium head blight. Format: in vivo, Wheat (cultivar: Haruyutaka).
Experiment [3] has as its system Fusarium head blight. Format: in vivo, Wheat (cultivar: Haruyutaka). This is another data set of the same source.
Experiment [4] concerns DON contamination. Briefly: Field test, mixed use (2): DON contamination concentration by ELISA (Example 4). Format: in vivo, Wheat (cultivar: Haruyutaka). On the technique in general: ELISA stands for enzyme-linked immunosorbent assay.
Experiment [5] deals with DON contamination. On the set-up: species or system Wheat (cultivar: Haruyutaka). The conditions noted are these: in vivo.
The test system of experiment [6] is Fusarium head blight. Format: in vivo, Wheat (cultivar: Haruyutaka). This is another data set of the same source.
In experiment [7] the test system is DON contamination. Briefly: Field test, single use: DON contamination concentration of wheat whole grain powder by ELISA (Example 1). The settings on record: for DON concentration: 3 foliar sprays.
Protocol: Wheat (cultivar: Haruyutaka) was seeded on Apr. 19, 2002, and cultivated according to a conventional cultivating standard (Hokkaido, Agriculture Department, 1995) to establish test sections with 6.75 m^2 per section (3 repeats). […] That is, the first spray (June 28, flowering date), the second spray (Jul. 8, 10 days after the flowering date, and the third spray (Jul. 18, 20 days after the flowering date) were performed. A conventional control for the purpose of controlling plant pathogens and plant insects was performed together. That is, the first [June 20, azoxystrobin (2000 times dilution)+fenitrothion (1000 times dilution)], the second [tebuconazole (June 28, 2000 times dilution)+sumithione (1000 times dilution)], and the third [July 8, propiconazole (2000 times dilution)+fenitrothion (1000 times dilution)], the forth [July 17, tebuconazole (2000 times dilution)+fenitrothion (1000 times dilution)] were performed. As controls, the test section where only the conventional control was given and the test section without any control were established. Harvest was performed by harvesting the wheat in 4 m^2 in the test sections on August 9 (52 days after the heading date). After the harvest, the wheat was applied on a rice grader with 2.2 mm opening of screen to make selected grains, which were then pulverized by a rapid pulverizer to make whole grain powder. The whole grain powder was used as a sample for analysis. The DON contamination concentration was analyzed by ELISA method using commercially available Rida Screen Fast Don supplied from r-Biopharm.
Preparation of analysis sample solutions and analysis procedure are briefly described.
To 5 g of the whole grain powder, 100 ml of water was added, and vigorously agitated for 10 min to make a DON extract solution.
The DON extract solution was centrifuged at high speed, and the supernatant was used for the ELISA analysis.
According to the method described on ELISA kit, various reagents were added, and subsequently an absorbance of each test solution was measured.
The DON concentration of each test solution was read out from a standard curve made using DON standard solutions.
The test system of experiment [8] is Fusarium graminearum. Format: cell-based. The settings on record: potassium phosphite 5.6%; for Ergosterol peak area value: 27° C.
Experiment [9] deals with Fusarium graminearum having DON production capacity. Format: cell-based.
Experiment [10] shares this test system. Format: cell-based. This is another data set of the same source.
Experiment [11] concerns Fusarium graminearum. Format: cell-based. The settings on record: for Ergosterol peak area: day 28 of culture.
Where [12] appears, read: Iminoctadine acetate 0.025% mixed with potassium phosphite 0.07% P2O5.
The mark [13] stands for this setting: Iminoctadine acetate 0.025%, without potassium phosphite.
Where [14] appears, read: Kresoxim-methyl 0.021% mixed with potassium phosphite 0.07% P2O5.
Setting [15] is: Kresoxim-methyl 0.021%, without potassium phosphite.
Where [16] appears, read: Tebuconazole 0.020% mixed with potassium phosphite 0.070% in P2O5.
The mark [17] stands for this setting: Tebuconazole 0.020% mixed with potassium phosphite 0.07% P2O5.
Setting [18] is: Tebuconazole 0.020%, without potassium phosphite.
[19] abbreviates: sulfur 0.125% mixed with potassium phosphite 0.070% in P2O5.
The mark [20] stands for this setting: sulfur 0.125%, without potassium phosphite.
The mark [21] stands for this setting: Propiconazole 0.017% mixed with potassium phosphite 0.070% in P2O5.
Setting [22] is: Propiconazole 0.017% mixed with potassium phosphite 0.07% P2O5.
Setting [23] is: Propiconazole 0.017%, without potassium phosphite.
Where [24] appears, read: active ingredient A 0.112% (as P2O5), conventional control.
[25] abbreviates: active ingredient A 0.120% (as P2O5), conventional control.
[26] abbreviates: Metconazole 0.006% mixed with potassium phosphite 0.07% P2O5.
Setting [27] is: Metconazole 0.006%, without potassium phosphite.
The mark [28] stands for this setting: Trifloxystrobin 0.025% mixed with potassium phosphite 0.070% in P2O5.
Setting [29] is: Trifloxystrobin 0.025%, without potassium phosphite.
[30] abbreviates: potassium phosphite 0.070% in P2O5 alone, no active ingredient B.
The mark [31] stands for this setting: potassium phosphite 0.07% P2O5 alone, no active ingredient B.
Setting [32] is: active ingredient A 0.038% (as P2O5), conventional control.
The mark [33] stands for this setting: active ingredient A 0.070% (as P2O5), conventional control.
[34] abbreviates: active ingredient A 0.112% (as P2O5), no control.

With `CC(=O)O.CC(=O)O.CC(=O)O.NC(N)=NCCCCCCCCNCCCCCCCCN=C(N)N` [Iminoctadine acetate, 1,1′-iminodi(octamethylene)diguanidium=triacetate], the DON concentration with DON contamination [1] (setting [12]) is on record as 0.20 ppm; in the experiment on DON contamination [1] (setting [13]) it was 1.04 ppm. In addition, the entries for the “Incidence rate for panicles” value in the experiment on Fusarium head blight [2] (setting [12]) and in the experiment with Fusarium head blight [2] (setting [13]) were 3.0% and 1.7%, respectively. The entries for the “Number of diseased spikelets/panicle” value in the experiment with Fusarium head blight [2] (setting [12]) and in the experiment with Fusarium head blight [2] (setting [13]) were 0.030 and 0.017, respectively.
In the case of `CO/N=C(/C(=O)OC)c1ccccc1COc1ccccc1C` [Kresoxim-methyl, methyl=(E)-2-methoxyimino[α-(o-tolyloxy)-o-tolyl]acetate], the DON concentration was found to be 0.51 ppm with DON contamination [1] (setting [14]) and 1.05 ppm in the experiment with DON contamination [1] (setting [15]). In addition, the “Incidence rate for panicles” value in the experiment with Fusarium head blight [2] (setting [14]) amounted to 0.7%; with Fusarium head blight [2] (setting [15]), 0.3%. The “Number of diseased spikelets/panicle” value in the experiment with Fusarium head blight [2] (setting [14]) is 0.007; in the experiment with Fusarium head blight [2] (setting [15]), 0.003.
Turning to `CC(C)(C)C(O)(CCc1ccc(Cl)cc1)Cn1cncn1` (racemic) [Tebuconazole, (RS)-1-p-chlorophenyl-4,4-dimethyl-3-(1H-1,2,4-triazol-1-ylmethyl)pentan-3-ol], the “Incidence rate for panicles” value stood at 5.0% in the experiment on Fusarium head blight [3] (setting [16]) and 1.0% in the experiment with Fusarium head blight [2] (setting [17]). The “Number of diseased spikelets/panicle” value in the experiment with Fusarium head blight [3] (setting [16]) is 5.0; in the experiment with Fusarium head blight [2] (setting [17]), 0.010. The DON concentration is recorded as 0.38 ppm in the experiment on DON contamination [1] (setting [17]), 0.39 ppm in the experiment on DON contamination [1] (setting [18]), 0.08 ppm in the experiment on DON contamination [4] (setting [16]) and 0.16 ppm in the experiment on DON contamination [4] (setting [18]).
As for `S1SSSSSSS1` [sulfur], the “Incidence rate for panicles” value in the experiment on Fusarium head blight [3] (setting [19]) and in the experiment with Fusarium head blight [3] (setting [20]) was 8.7% in each case. The “Number of diseased spikelets/panicle” value in the experiment with Fusarium head blight [3] (setting [19]) was 8.7; in the experiment on Fusarium head blight [3] (setting [20]) it was 10.3. The DON concentration in the experiment on DON contamination [4] (setting [19]) amounted to 0.43 ppm; in the experiment with DON contamination [4] (setting [20]) it was 1.85 ppm.
For the molecule `CCCC1COC(Cn2cncn2)(c2ccc(Cl)cc2Cl)O1` (stereo not drawn) [Propiconazole, 1-[2-(2,4-dichlorophenyl)-4-propyl-1,3-dioxolan-2-ylmethyl)-1H-1,2,4-triazole], the “Incidence rate for panicles” value with Fusarium head blight [3] (setting [21]) is 4.7%; with Fusarium head blight [2] (setting [22]) it was 2.7%. The entries for the “Number of diseased spikelets/panicle” value in the experiment on Fusarium head blight [3] (setting [21]) and in the experiment with Fusarium head blight [2] (setting [22]) were 5.0 and 0.027, respectively. Besides, the DON concentration with DON contamination [1] (setting [22]) is 0.72 ppm; with DON contamination [1] (setting [23]) it was 1.01 ppm; in the experiment with DON contamination [4] (setting [21]), 0.11 ppm; with DON contamination [4] (setting [23]) it was 0.57 ppm.
On to potassium phosphate, for which, in the experiment with DON contamination [5], the “DON concentration diseased grain” value is 86.9 ppm and the “DON concentration healthy grain” value turned out to be 0.06 ppm. Besides, in the experiment on Fusarium head blight [6] (setting [24]), the “Incidence rate of Fusarium head blight for panicles” value is recorded as 0.0%. In the experiment on DON contamination [7] (Example 1, summary in text), the DON inhibitory effect result is given as “low”. Besides, the DON concentration in the experiment with DON contamination [7] (setting [24]) is on record as 4.66 ppm.
For the molecule `CCO[PH](=O)O` [Fosetyl, aluminium salt (common name: fosetyl) of tris(ethylphosphonate)], in the experiment with DON contamination [5], the “DON concentration diseased grain” value was 11.0 ppm and the “DON concentration healthy grain” value is recorded as 0.96 ppm. The “Incidence rate of Fusarium head blight for panicles” value in the experiment on Fusarium head blight [6] (setting [25]) amounted to 0.0%. In addition, in the experiment on DON contamination [7] (setting [25]), the DON concentration is 0.84 ppm.
On to `CC1(C)CCC(Cc2ccc(Cl)cc2)C1(O)Cn1cncn1` (racemic) [Metconazole, (1RS,5RS)-5-(4-chlorobenzyl)-2,2-dimethyl-1-(1-H-1,2,4-triazol-1-ylmethyl)cyclopentanol], for which the DON concentration was determined as 0.10 ppm in the experiment on DON contamination [1] (setting [26]) and 0.34 ppm with DON contamination [1] (setting [27]). The “Incidence rate for panicles” value in the experiment with Fusarium head blight [2] (setting [26]) is reported as 1.0%; in the experiment with Fusarium head blight [2] (setting [27]) it was 0.7%. Also, the figures for the “Number of diseased spikelets/panicle” value in the experiment with Fusarium head blight [2] (setting [26]) and with Fusarium head blight [2] (setting [27]) were 0.010 and 0.007, respectively.
Iminoctadine albesilate: the “Incidence rate for panicles” value in the experiment on Fusarium head blight [3] (in vivo) was 7.3% and 2.7%. The DON concentration in the experiment with DON contamination [4] (Iminoctadine albesilate 0.030% mixed with potassium phosphite 0.070% in P2O5) is recorded as 0.00 ppm; in the experiment on DON contamination [4] (Iminoctadine albesilate 0.030%, without potassium phosphite), 0.22 ppm.
In the case of `CON=C(C(=O)OC)c1ccccc1CON=C(C)c1cccc(C(F)(F)F)c1` [Trifloxystrobin], the results for the “Incidence rate for panicles” value with Fusarium head blight [3] (setting [28]) and in the experiment on Fusarium head blight [3] (setting [29]) were 3.0% and 4.3%, respectively. In addition, the “Number of diseased spikelets/panicle” value in the experiment with Fusarium head blight [3] (setting [28]) came out at 3.0; in the experiment with Fusarium head blight [3] (setting [29]), 5.0. Moreover, the DON concentration in the experiment with DON contamination [4] (setting [28]) is recorded as 0.12 ppm; with DON contamination [4] (setting [29]) it was 0.35 ppm.
In the case of potassium phosphite, the “DON concentration healthy grain” value in the experiment on DON contamination [5] is 0.05 ppm and 0.04 ppm. In addition, the “DON contamination concentration in diseased grains” value with DON contamination [5] was “decreased depending on the given concentration of potassium phosphite”. Moreover, the “Incidence rate for panicles” value is given as 10.3% with Fusarium head blight [3] (setting [30]) and 4.3% with Fusarium head blight [2] (setting [31]). For the same molecule, the “Number of diseased spikelets/panicle” value in the experiment with Fusarium head blight [3] (setting [30]) turned out to be 11.0; with Fusarium head blight [2] (setting [31]), 0.050. The DON concentration is on record as 0.77 ppm in the experiment on DON contamination [1] (setting [31]); 2.41 ppm in the experiment on DON contamination [7] (setting [32]); 0.59 ppm with DON contamination [7] (setting [33]); 0.39 ppm in the experiment on DON contamination [7] (setting [24]); 0.69 ppm in the experiment with DON contamination [7] (setting [34]); 0.57 ppm in the experiment with DON contamination [4] (setting [30]). Moreover, the “Incidence rate of Fusarium head blight for panicles” value in the experiment with Fusarium head blight [6] (setting [32]) is given as 0.3%; in the experiment with Fusarium head blight [6] (setting [33]) it was 0.0%; in the experiment with Fusarium head blight [6] (setting [24]), 0.9%; with Fusarium head blight [6] (setting [34]), 1.2%. For the same molecule, the “Ergosterol peak area value” in the experiment with Fusarium graminearum [8] (7 days of culturing) turned out to be 17952; with Fusarium graminearum [8] (14 days of culturing), 115921; in the experiment with Fusarium graminearum [8] (21 days of culturing) it was 372377; in the experiment on Fusarium graminearum [8] (28 days of culturing), 350972. Besides, in the experiment with Fusarium graminearum [8] (course over culture), the “amount of ergosterol (indicator of the amount of fungi)” value is on record as “reached a plateau on the 21st day”. Further, the DON entry in [9] was “ND. (key: ND.: ND means that the analytical value is less than the detection limit (0.222 ppm) of the ELISA analysis kit.)”. For the same molecule, in [9], the DON production result is “not detected”. Further, the DON amount entry in [10] was “significantly lower than that in the non-treatment”. In the experiment with DON contamination [4] (single agent treatment with the compound A), the DON contamination amount entry is given as “at a low level”. For the same molecule, the Ergosterol peak area in the experiment with Fusarium graminearum [11] (treatment concentration 0.028%) turned out to be 1810454; in the experiment with Fusarium graminearum [11] (treatment concentration 0.056%) it was 1834861; in the experiment with Fusarium graminearum [11] (treatment concentration 0.112%), 1769582; with Fusarium graminearum [11] (treatment concentration 0.560%) it was 1921693; in the experiment on Fusarium graminearum [11] (treatment concentration 2.800%), 85891. The “inhibitory effect on the fungal amount” value is listed as “inhibitory effect on the fungal amount at a moderate degree” in the experiment on Fusarium graminearum [11] (water solution of 0.056 to 0.560% potassium phosphite, compared to non-treatment) and “remarkable inhibitory effect on the fungal amount” in the experiment on Fusarium graminearum [11] (water solution of 2.800% potassium phosphite).
